Results from PubChem BioAssay (NCI).
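Briefly, cells in 96-well plates were exposed to five compound concentrations for 48 h, and endpoints were estimated by linear interpolation. TGI: total growth inhibition.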

Tests used:
Assay in all cases: NCI anticancer screen, dose series, 48 h
[1] = system: NCI-H226 lung
[2] = system: UACC-62 melanoma
[3] = system: HL-60(TB) leukemia
[4] = system: DMS 273 small cell lung
[5] = system: M19-MEL melanoma
[6] = system: KM20L2 colon
[7] = system: LXFL 529 NSCLC
[8] = system: DMS 114 small cell lung
[9] = system: DLD-1 colon
[10] = system: HOP-18 NSCLC

Row | Structure (SMILES) | TGI [1] | TGI [2] | TGI [3] | other results
1 | CCOC(=O)c1cn2c(n1)sc1cccc(C)c12 | > 100 µM | > 100 µM | – | –
2 | O=C1CSC(c2ccc(Cl)cc2)N1c1ccc(Oc2ccc(Cl)cc2)c(Cl)c1 (stereo not given) | 36.5 µM | 28.8 µM | 39 µM | –
3 | COC(CCC[N+](C)(C)C)CC[N+](C)(C)C (stereo not given) | > 100 µM | > 100 µM | > 100 µM | –
4 | COc1cc(C(=O)N(C(=S)OCc2ccccn2)c2ccccc2)cc(OC)c1OC | > 100 µM | > 100 µM | > 100 µM | –
5 | CCCCCCCCCCCCCCNC(=O)CCC(NC(=O)c1ccc(N(C)Cc2cnc3nc(N)nc(N)c3n2)cc1)C(=O)NCCCCCCCCCCCCCC (stereo not given) | > 100 µM | 22.2 µM | 0.758 µM | –
6 | Cc1ccc(C(=O)O)cc1S(=O)(=O)Nn1cnc2ccc(S(=O)(=O)Nc3ccccc3C(=O)O)cc2c1=O | > 100 µM | > 100 µM | > 100 µM | –
7 | CCC(C(=O)O)c1ccc(OC)cc1 (stereo not given) | > 100 µM | > 100 µM | > 100 µM | TGI [4]: > 100 µM; TGI [5]: > 100 µM; TGI [6]: > 100 µM; TGI [7]: > 100 µM; TGI [8]: > 100 µM; TGI [9]: > 100 µM
8 | Nc1nc(Cl)cc(NCC2(CO)CC(=O)C2)n1 | > 100 µM | > 100 µM | > 100 µM | –
9 | COc1ccc(N/N=C2\CCOc3ccc(C)cc3C2=O)cc1 | 90.7 µM | 80.4 µM | > 100 µM | –
10 | NC(N)=N/N=C/c1c(-c2ccc(N)cc2)nc2sccn12 | > 100 µM | > 100 µM | 47.9 µM | –
11 | CO/C(=N\N=C\c1ccc(C(F)(F)F)cc1)c1ccncc1 | > 10 µM | – | > 10 µM | –
12 | CCCCCCc1cc2cc(-c3csc(CC#N)n3)c(=O)oc2cc1O | > 71.1 µM | > 100 µM | > 66.9 µM | –
13 | Cc1c(O)c(O)cc[n+]1C1OC(CO)C(O)C1O (stereo not given) | > 100 µM | > 100 µM | – | TGI [10]: > 100 µM; TGI [4]: > 100 µM; TGI [5]: > 100 µM; TGI [6]: > 100 µM; TGI [7]: > 100 µM; TGI [9]: > 100 µM
14 | C=C1C(=O)O[C@@H]2C(=O)[C@@H](C)CCC/C(C)=C/CC[C@@]3(C)O[C@@H]3C[C@@H]12 | > 100 µM | > 100 µM | 33.4 µM | –
15 | COc1cc(Br)cc2cc(-c3cn4ccsc4n3)c(=O)oc12 | – | 75.9 µM | > 100 µM | –
16 | Nn1c(-c2ccccc2)nn(C(=O)c2ccccc2)c1=O | > 100 µM | – | > 100 µM | –
17 | C[C@]12CCC(O)CC1=CC[C@@H]1[C@@H]2CC[C@]2(C)C(=O)[C@H](n3ccnc3)C[C@@H]12 (stereo not given in full) | > 100 µM | > 100 µM | 40.7 µM | –
18 | O=c1[nH]c(Nc2cccc(CC(F)(F)F)c2)nc2nc[nH]c12 | > 100 µM | > 100 µM | > 100 µM | –

Row | Structure (SMILES) | TGI [1] | TGI [2] | TGI [3] | other results
19 | COc1ccc(-c2cc(O)c3nc4ccccc4n3c2)cc1 | > 100 µM | > 100 µM | > 100 µM | –
20 | O=C1CC(NC(=O)C(F)(F)F)c2c(Br)sc(N3CCNCC3)c21 (stereo not given) | > 100 µM | > 100 µM | > 100 µM | –
21 | COc1cc2nc3n(c(=O)c2cc1OC)-c1ccc([N+](=O)[O-])cc1C3=O | > 100 µM | > 100 µM | – | –
22 | CC(=O)OC1CC(OC2C(O)CC(OC3C(O)CC(OC4CCC5(C)C(CCC6C5CC(O)C5(C)C(C7=CC(=O)OC7)CCC65O)C4)OC3C)OC2C)OC(C)C1OC1OC(CO)C(O)C(O)C1O (stereo not given) | 0.606 µM | 0.404 µM | 0.22 µM | –
23 | ClCCN1CCC2(CC1)SSC1(CCN(CCCl)CC1)S2 | – | 71 µM | 76.8 µM | –
24 | C1CN(c2nc3c(nnc4nc(N5CCOCC5)sc43)s2)CCO1 | > 100 µM | > 100 µM | > 100 µM | –
25 | C1=C2/CC[C@H](Sc3ccccc3)C2C2(CCCCC/1)OCCO2 (stereo not given in full) | 60.4 µM | 64.5 µM | > 100 µM | TGI [10]: > 100 µM; TGI [4]: > 100 µM; TGI [5]: 33.5 µM; TGI [6]: 37.1 µM; TGI [9]: > 100 µM
26 | CCCCC#C[I+]c1ccccc1 | 30.7 µM | 33 µM | 40.1 µM | TGI [10]: 27.6 µM; TGI [4]: 40.9 µM; TGI [5]: 30.1 µM; TGI [6]: 35.9 µM; TGI [7]: 24.6 µM; TGI [9]: 38.2 µM
27 | Nc1nc(SCCc2ccccc2)c2[nH]cnc2n1 | > 100 µM | > 100 µM | – | –
28 | O=c1c2cc([N+](=O)[O-])cnc2sn1-c1ccc([N+](=O)[O-])cc1 | > 100 µM | > 100 µM | 64.2 µM | –
29 | Cc1ccc(-c2n[nH]c(=O)n2N2C(=O)c3ccccc3C2=O)cc1 | > 100 µM | > 100 µM | > 100 µM | –
30 | COc1ccc(C2CC(c3c(O)ccc4ccccc34)=NN2C(C)=O)cc1OC (stereo not given) | > 100 µM | 29.7 µM | – | –
31 | COc1cc2c(c(OC)c1OC)C(=O)[C@@H]1[C@H]2N1C(N)=O | > 100 µM | 68.2 µM | > 100 µM | –
32 | COC(=O)C1SC(SC)=NC12c1ccccc1Nc1ccccc12 (stereo not given) | > 100 µM | 34 µM | 87.9 µM | –
33 | COc1ccc2cc(NC(=O)N/N=C\c3ccc([N+](=O)[O-])cc3)ccc2c1 | > 100 µM | > 100 µM | > 100 µM | –
34 | C[C@@H]1CC[C@]2(C(=O)O)CC[C@]3(C)C(=CC[C@@H]4[C@@]5(C)CC[C@H](O)C(C)(C)[C@@H]5CC[C@]43C)[C@@H]2[C@]1(C)O | – | 10.1 µM | 19.8 µM | –
35 | CCOC(=O)C1(C/C=C/CBr)Cc2ccccc2C1=O (stereo not given) | – | 5.44 µM | > 100 µM | –
36 | CN1CCc2cc(N)cc3c2C1Cc1ccc(O)c(O)c1-3 (stereo not given) | 82.8 µM | 70.4 µM | 98.7 µM | –
